The results in this text go back to patent US20080182859A1 (Curis, Inc., priority 2006, published 2008).

Type in all cases: cell-based
The subject of assay [1] is sonic hedgehog pathway. As to the kind of experiment: Hedgehog pathway Gli-luciferase reporter assay, TM3 cells. As to conditions: TM3 mouse Leydig cells. An excerpt:
(§1) Mouse (TM3: mouse Leydig cells; S12: mouse embryonic mesenchymal cells) and human (Daoy: human medulloblastoma cell; HepM: human embryonic palatal mesenchymal cell) cell lines are used to screen small molecules for their ability to modulate the activity of the sonic hedgehog pathway (Table 1, Table 2, and Table 3). Stable hedgehog pathway reporter cell lines are established by specific antibiotic selection following transfection of a reporter plasmid containing a luciferase gene located directly downstream from the gli promoter. Consequently, any observable changes in cellular luciferase activity may be attributed to changes in sonic hedgehog pathway activity in mouse and human cells, respectively, since gli is the major by-product of this pathway. To calculate activity, we generate an eleven point dose curve for each compound using 1:3 dilutions in 96 well assay plates. Each plate tested also contains low and high control to establish maximal pathway activation so to establish/compare a percentage activation of each tested compound (AMAX) on respective plates. Also we calculate EC50 values, or a concentration where the pathway will be exactly 50% activated, for each tested compound to determine potency. In these cell lines, compounds that register >20% AMAX values are considered active.
(§2) Stable hedgehog pathway reporter cell lines are established following specific antibiotic selection following transfection of a reporter plasmid In short, typically cells are plated in MicroTiter-plates at 10,000-20,000 cells per well, in growth media (containing 10%-20% FBS). After 48-72 hrs (HGL and DGL respectively) the media in the assay plates is switched to low-serum containing media (0.5% FBS). At that time compounds are added (at 1-5 μM) to the assay plates, in the presence or absence of hedgehog protein (octyl-modified version; 1-5 ng/ml). After another 24 hrs of incubation, the media from the assay plates is discarded and replaced with luciferase assay-mix. Subsequently, plates are incubated at RT for ˜15-30 mins and then read in a luminometer. [note: addition of the Hedgehog protein, although not critical, will sensitize the assay allowing the identification of weak actives].

Assay [2] concerns sonic hedgehog pathway. As to the kind of experiment: Human hedgehog reporter assay HEPM-GliLuc (HGL). As to conditions: HepM human embryonic palatal mesenchymal cells, Gli-luciferase reporter.
Text: as §1, §2

The subject of assay [3] is sonic hedgehog pathway. The assay can be described thus: Human hedgehog reporter assay Daoy-GliLuc (DGL). As to conditions: Daoy human medulloblastoma cells, Gli-luciferase reporter; read-out: Daoy Avg. EC50.
Text: as §1, §2

Structures are written as SMILES. Counter-ions that a name gives are not always drawn.

As for `CN[C@H]1CC[C@@H](N(Cc2cc(-c3ccnc(C)c3)ccc2OC)C(=O)c2sc3ccccc3c2Cl)CC1` [331 (R11)], the EC50 in assay [1] and in assay [2] was less than 50 nM in each case.
Regarding `CN[C@H]1CC[C@@H](N(Cc2cc(-c3ccncc3)ccc2OC)C(=O)c2sc3ccccc3c2Cl)CC1` [339 (R12)], the EC50 in assay [1] and in assay [2] was less than 50 nM each time.
Regarding `CN[C@H]1CC[C@@H](N(Cc2cc(-c3ccc(C)nc3)ccc2OC)C(=O)c2sc3ccccc3c2Cl)CC1` [Compound 320, 3-Chloro-benzo[b]thiophene-2-carboxylic acid [2-methoxy-5-(6-methyl-pyridin-3-yl)-benzyl]-(4-methylamino-cyclohexyl)-amide dihydrochloride], the concentration for a half-maximal effect (EC50) in assay [1] and in assay [2] was less than 50 nM each time.
Regarding `CN[C@H]1CC[C@@H](N(Cc2cc(-c3ccc(C#N)cc3)ccc2OC)C(=O)c2sc3cccc(F)c3c2Cl)CC1` [Compound 366, 3-Chloro-4-fluoro-benzo[b]thiophene-2-carboxylic acid (4′-cyano-4-methoxy-biphenyl-3-ylmethyl)-(4-methylamino-cyclohexyl)-amide hydrochloride], the EC50 in assay [1] and in assay [3] was less than 50 nM throughout.
With `CN[C@H]1CC[C@H](N(Cc2cc(-c3cccc(C#N)c3)ccc2F)C(=O)c2sc3ccccc3c2Cl)CC1` [Compound 420, 3-Chloro-benzo[b]thiophene-2-carboxylic acid (3′-cyano-4-fluoro-biphenyl-3-ylmethyl)-(4-methylamino-cyclohexyl)-amide trifluoroacetate], the EC50 in assay [1] and in assay [3] was 50 to 250 nM in each case.
As for `CN[C@H]1CC[C@H](N(Cc2cc(-c3ccc(C#N)cc3)ccc2F)C(=O)c2sc3ccccc3c2Cl)CC1` [Compound 423, 3-Chloro-benzo[b]thiophene-2-carboxylic acid (4′-cyano-4-fluoro-biphenyl-3-ylmethyl)-(4-methylamino-cyclohexyl)-amide trifluoroacetate], the EC50 in assay [1] and in assay [3] was 250 to 1000 nM in each case.
On to `CN[C@H]1CC[C@H](N(Cc2cc(-c3ccccc3)ccc2F)C(=O)c2sc3ccccc3c2Cl)CC1` [Compound 425, 3-Chloro-benzo[b]thiophene-2-carboxylic acid (4-fluoro-biphenyl-3-ylmethyl)-(4-methylamino-cyclohexyl)-amide trifluoroacetate], for which the EC50 in assay [1] and in assay [3] was less than 50 nM in each case.
Take `CN[C@H]1CC[C@H](N(Cc2cc(-c3ccc(N(C)C=O)cc3)ccc2F)C(=O)c2sc3ccccc3c2Cl)CC1` [Compound 426, 3-Chloro-benzo[b]thiophene-2-carboxylic acid [4-fluoro-4′-(formyl-methyl-amino)-biphenyl-3-ylmethyl]-(4-methylamino-cyclohexyl)-amide trifluoroacetate]: the EC50 in assay [1] is less than 50 nM; in assay [3], 50 to 250 nM.
`CN[C@H]1CC[C@H](N(Cc2cc(-c3ccc(C(O)C(F)(F)F)cc3)ccc2F)C(=O)c2sc3ccccc3c2Cl)CC1` (some centres unmarked) [Compound 433, 3-Chloro-benzo[b]thiophene-2-carboxylic acid [4-fluoro-4′-(2,2,2-trifluoro-1-hydroxy-ethyl)-biphenyl-3-ylmethyl]-(4-methylamino-cyclohexyl)-amide hydrochloride]: the EC50 in assay [1] and in assay [3] was less than 50 nM in each case.
`CN[C@H]1CC[C@H](N(Cc2cc(-c3ccc(C(=O)C(F)(F)F)cc3)ccc2F)C(=O)c2sc3c(F)ccc(F)c3c2Cl)CC1` [Compound 434, 3-Chloro-4,7-difluoro-benzo[b]thiophene-2-carboxylic acid [4-fluoro-4′-(2,2,2-trifluoro-acetyl)-biphenyl-3-ylmethyl]-(4-methylamino-cyclohexyl)-amide hydrochloride]: the EC50 in assay [1] and in assay [3] was less than 50 nM in each case.
